{"source": "patent US20100010096A1", "about": "“Methadone chiral isolate as an improved pharmaceutical” (priority 2006, published 2010)", "biological_target": "T1, IKr channel (Homo sapiens, UniProt Q12809)", "T1 construct": "expressed in transfected cells; host or cells: Xenopus oocytes (cRNA injection)", "T1 sequence (Q12809 whole entry)": "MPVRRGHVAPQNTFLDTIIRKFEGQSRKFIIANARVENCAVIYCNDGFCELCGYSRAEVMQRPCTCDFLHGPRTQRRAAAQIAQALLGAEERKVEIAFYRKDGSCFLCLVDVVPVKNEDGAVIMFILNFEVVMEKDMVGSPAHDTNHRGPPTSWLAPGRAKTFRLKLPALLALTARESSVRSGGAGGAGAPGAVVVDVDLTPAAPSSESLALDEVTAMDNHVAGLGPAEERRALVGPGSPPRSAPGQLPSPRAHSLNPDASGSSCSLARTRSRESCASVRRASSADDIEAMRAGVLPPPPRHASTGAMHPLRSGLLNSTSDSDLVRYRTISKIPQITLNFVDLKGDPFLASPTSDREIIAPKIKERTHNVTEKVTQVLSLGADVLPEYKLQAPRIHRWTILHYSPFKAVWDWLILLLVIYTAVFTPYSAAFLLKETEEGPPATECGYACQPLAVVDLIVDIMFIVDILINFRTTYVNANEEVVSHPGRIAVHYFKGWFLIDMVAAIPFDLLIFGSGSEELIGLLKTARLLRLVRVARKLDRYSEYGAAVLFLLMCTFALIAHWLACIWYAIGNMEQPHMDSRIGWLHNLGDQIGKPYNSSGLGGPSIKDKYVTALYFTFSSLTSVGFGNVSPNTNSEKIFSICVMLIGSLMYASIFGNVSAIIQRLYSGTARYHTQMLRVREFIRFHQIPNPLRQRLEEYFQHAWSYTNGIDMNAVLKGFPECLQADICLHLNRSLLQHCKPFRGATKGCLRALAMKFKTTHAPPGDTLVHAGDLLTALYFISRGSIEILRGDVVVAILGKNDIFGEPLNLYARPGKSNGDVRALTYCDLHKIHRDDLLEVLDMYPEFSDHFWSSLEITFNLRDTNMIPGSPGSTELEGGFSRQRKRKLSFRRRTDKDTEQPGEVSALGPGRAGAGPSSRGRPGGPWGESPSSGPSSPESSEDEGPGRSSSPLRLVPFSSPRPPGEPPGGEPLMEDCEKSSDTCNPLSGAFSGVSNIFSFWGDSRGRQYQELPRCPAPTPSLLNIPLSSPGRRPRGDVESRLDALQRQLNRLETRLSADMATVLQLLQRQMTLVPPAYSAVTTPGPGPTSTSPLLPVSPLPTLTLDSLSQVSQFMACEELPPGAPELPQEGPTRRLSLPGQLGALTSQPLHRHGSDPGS", "assay": "IKr inhibition in xenopus oocytes overexpressing the IKr channel, two electrode voltage clamp", "assay_type": "cell-based", "details": "methadone racemate 0.01 to 3 mM, FIG. 3", "data": [{"compound": "CCC(=O)C(CC(C)N(C)C)(c1ccccc1)c1ccccc1", "note": "(racemic) [methadone]", "values": [{"measurement": "inhibition of the IKr current", "value": "dose related inhibition of the IKr current"}]}]}
